According to PMC12040169 (PLOS Biology, 2025):

test: in vitro; settings: human, hela cells, % viability

Row | Compound | viability at 28.5 h, 10 µM [%]
1 | CCC(CN1CCN(C)CC1)NC(=O)C1(c2cccc(F)c2)CC1 (stereo not shown) [CBK282786] | 110
2 | CCC(CN1CCOCC1)NC(=O)Cc1coc2cc(C)ccc12 (stereo not shown) [CBK282791] | 93.3
3 | Cn1cc(CN2CCN(CC3(c4ccccc4)CC3)CC2)cn1 [CBK282794] | 109
4 | OC1(c2ccccc2)CCN(Cc2ccccc2-n2cccn2)C1 (stereo not shown) [CBK282795] | 96.5
5 | Cc1nn(C)cc1S(=O)(=O)N1CCc2cc(Cl)ccc21 [CBK282802] | 107
6 | NC(=O)Cn1cc(CN2CCC(c3ccccc3)C2)c2ccccc21 (stereo not shown) [CBK282803] | 92.3
7 | COCC(=O)NC(Cc1ccsc1)c1nc(C)cs1 (stereo not shown) [CBK282804] | 99.5
8 | Cc1nn(C)cc1S(=O)(=O)Nc1ccc2c(ccn2C)c1 [CBK282806] | 77.4
9 | O=C1CCCN1c1ccc(CN2CCC(O)(c3ccccc3)C2)cc1 (stereo not shown) [CBK282808] | 98.4
10 | CCC(CN1CCOCC1)NC(=O)Cc1coc2cc(C)c(C)cc12 (stereo not shown) [CBK282811] | 91
11 | Cc1ccc2oc(CN3CCC(O)(c4cccnc4)CC3)c(C)c2c1 [CBK282816] | 94.7
12 | Cc1nc(CC(=O)NC(Cc2ccsc2)c2nccs2)cs1 (stereo not shown) [CBK282823] | 87.5
13 | O=C(NC(Cc1ccsc1)c1nccs1)C1CCOCC1 (stereo not shown) [CBK282824] | 96.4
14 | C=C(C)CN1CCN(Cc2c[nH]nc2C(C)(C)C)CC1 [CBK282827] | 92.6
15 | C=C(C)CN1CCN(Cc2cnn(C3CCCCC3)c2)CC1 [CBK282828] | 98.9
16 | Cc1ccc(O)c(CN(CCCn2ccnc2)CC2CC=CCC2)c1 (stereo not shown) [CBK282829] | 86.7
17 | COCCC(=O)NC(Cc1ccsc1)c1nc(C)cs1 (stereo not shown) [CBK282830] | 85.1
18 | Cc1csc(C(Cc2ccsc2)NC(=O)Cn2cccn2)n1 (stereo not shown) [CBK282831] | 89.7
19 | O=C(c1ccccn1)N1CCCC(c2cc3ccccc3cn2)C1 (stereo not shown) [CBK282832] | 96.3
20 | COc1ccc(C2(NCc3cn(CC(N)=O)c4ccccc34)CC2)cc1 [CBK282833] | 107
21 | COc1ccc(C2(NCc3c(C)nc4sccn34)CC2)cc1 [CBK282835] | 95.2
22 | CCn1cc(S(=O)(=O)NC2(c3ccc(F)cc3)CC2)c(C)n1 [CBK282837] | 92.4
23 | CN1Cc2ccccc2CC1C(=O)N1CCCC12CC=CC2 (stereo not shown) [CBK282838] | 81.3
24 | O=C1CCCN1c1ccc(S(=O)(=O)NCC2CC3CCC2C3)cc1 (stereo not shown) [CBK282841] | 106

Row | Compound | viability at 28.5 h, 10 µM [%]
25 | C=CCn1cc(CN(CCN(C)C)Cc2ccc(C)o2)c(C)n1 [CBK282844] | 101
26 | CCn1cc(CN(CCN(C)C)Cc2ccc(C)o2)c(C)n1 [CBK282845] | 79.6
27 | C=CCn1ncc(CN(CCN(C)C)Cc2ccc(C)o2)c1C [CBK282846] | 81.3
28 | CCN(CC)C(=O)Cn1ncc2c3oc(C)cc3n(C(C)C)c2c1=O [CBK282848] | 90.7
29 | CN1C(=O)c2ccccc2C(O)C2(C)CN(Cc3ccccc3)CC12 (stereo not shown) [CBK282849] | 108
30 | CN(C)C(=O)CN1C(=O)[C@H]2CCCN2C(=O)c2ccccc21 [CBK282854] | 91.2
31 | O=C1[C@@H]2CCCN2C(=O)c2ccccc2N1CCN1CCCC1 [CBK282857] | 96.3
32 | Cc1ccc(C)c2nc3c(cc12)CN(C1CC1)C(=O)CO3 [CBK282858] | 94.8
33 | O=c1c2snc(-c3ccc(F)cc3)c2ncn1C1CC1 [CBK282859] | 76.9
34 | COc1ccc(NC(=O)CCn2ccc3ccncc32)c(C)c1 [CBK282860] | 109
35 | O=C1Nc2ccccc2S(=O)(=O)N2CCCC12 (stereo not shown) [CBK282864] | 112
36 | CC1CCc2noc(C3CCCN(C(=O)c4ccco4)C3)c2C1 (stereo not shown) [CBK282865] | 110
37 | COCC(=O)NC1CC(C)(C)Cc2c1cnn2-c1ccc(C)cc1 (stereo not shown) [CBK282866] | 118
38 | O=C(Cn1nc(C(F)(F)F)c2cccn2c1=O)NC1CCCC1 [CBK282867] | 90.2
39 | CCCN(CC1CC1)C(=O)Cn1c([C@@H]2CCCO2)cc2cccnc21 [CBK282871] | 94.4
40 | C=CCNC(=O)C1CCCN(c2nc3ccccc3n2C)C1 (stereo not shown) [CBK282872] | 105
41 | O=C(Cc1ccc(F)cc1)N1CCOC(Cn2ccnc2)C1 (stereo not shown) [CBK282875] | 91
42 | Cc1cc2ccccc2n2c(=O)n(CCNC(=O)C(C)C)nc12 [CBK282876] | 84.2
43 | Cc1cc(-c2cc(=O)n(CCc3ccccc3)nc2-c2ccco2)on1 [CBK282879] | 105
44 | Nc1cc(-c2cccs2)nn(Cc2ccccc2Cl)c1=O [CBK282884] | 91
45 | CC(C)(C)C(=O)NCCn1c(=O)oc2ccccc21 [CBK282885] | 96.4
46 | Cc1cnc2c(c1)cc(C(F)(F)F)n2CC(=O)NC1CC1 [CBK282887] | 105
47 | O=C(C1CC1)N1CC2CCCC(C1)C2(O)c1cccnc1F (stereo not shown) [CBK282889] | 99.6
48 | CC(C)C(=O)N1CCCC(n2c(=O)oc3ccc(Cl)cc32)C1 (stereo not shown) [CBK282890] | 95.3

Row | Compound | viability at 28.5 h, 10 µM [%]
49 | O=C(c1ccco1)N1CCc2cc(-c3cn4c(n3)CCCC4)ccc21 [CBK282893] | 98.8
50 | COc1ccccc1Cn1ncc2c1CCCC2NC(=O)C1CCC1 (stereo not shown) [CBK282895] | 110
51 | Cc1ccc(CNCc2cc3c(C)nn(-c4ccccc4)c3[nH]c2=O)o1 [CBK282896] | 90.8
52 | Cc1nn(-c2ccccc2)c2[nH]c(=O)c(CNC3CCC3)cc12 [CBK282897] | 103
53 | Cc1nn(-c2ccccc2)c2[nH]c(=O)c(CNC(C)C)cc12 [CBK282899] | 93.1
54 | CC1CN(Cc2c(C(C)C)[nH]c3ncccc23)CC(C)O1 (stereo not shown) [CBK282900] | 93.7
55 | O=C1CC[C@H](NC(=O)c2cccs2)C(c2cccnc2)N1 (stereo partly shown) [CBK282901] | 98.5
56 | CNC(=O)[C@@H]1CN(Cc2ccccc2)C[C@H]1C(=O)c1ccc(F)cc1 [CBK282902] | 110
57 | OC1(c2ccccn2)CCN(CCc2ccccc2)CC1 [CBK282904] | 87.2
58 | O=C(c1cccnc1)N1CCN(CC2(c3ccccc3)CC2)CC1 [CBK282906] | 94.5
59 | O=C1CC[C@@H](NCc2cccc(O)c2)[C@H](c2cc(F)cc(F)c2)N1 [CBK282909] | 98
60 | O=C1CC[C@@H](NCc2ccsc2)[C@H](c2cc(F)cc(F)c2)N1 [CBK282910] | 102
61 | O=C1CC[C@@H](NCc2ccoc2)[C@H](c2cc(F)cc(F)c2)N1 [CBK282912] | 96
62 | Cn1cc(CN[C@@H]2CCC(=O)N[C@H]2c2cc(F)cc(F)c2)cn1 [CBK282913] | 100
63 | Cc1cc(C)c(-n2cccn2)c(CN2CCC(CO)C2)c1 (stereo not shown) [CBK282915] | 87.1
64 | O=C1NCC2(CCN(C(=O)C3CC3)CC2)Oc2ccccc21 [CBK282918] | 101
65 | O=C1NCC2(CCN(C(=O)c3ccco3)CC2)Oc2ccccc21 [CBK282919] | 103
66 | CC(=O)N1c2ccc(C(O)CN3CCCC(C)C3)cc2CC1C (stereo not shown) [CBK282922] | 96.5
67 | CC(=O)N1CCc2cc(C(O)CN3CCCC4CCCCC43)ccc21 (stereo not shown) [CBK282924] | 93.6
68 | O=C(c1ccccc1F)N1CCCC1Cn1c(=O)oc2ccccc21 (stereo not shown) [CBK282926] | 97.5
69 | COc1ccc([C@H]2CN(Cc3ccccc3)C[C@@H]2NC(C)=O)cc1 [CBK282930] | 92.1
70 | CC(=O)N1CCc2cc(C(=O)CN3CCC(c4ccccc4)C3)ccc21 (stereo not shown) [CBK282931] | 98
71 | O[C@@H]1CN(Cc2ccccc2F)CC[C@H]1N1CCCC1 [CBK282934] | 96.9
72 | OCCN(Cc1cccnc1)Cc1cccn1-c1ccccc1Cl [CBK282936] | 89.7

Row | Compound | viability at 28.5 h, 10 µM [%]
73 | COc1ccc(C(=O)NC2CCCNC2=O)s1 (stereo not shown) [CBK282938] | 88.4
74 | Cc1ccc(C(O)CN(C)Cc2c(C)nn(C)c2C)c(C)c1 (stereo not shown) [CBK282939] | 84.7
75 | CCC(NC(=O)c1ccc(C(C)(C)C)[nH]c1=O)c1ccc(OC)cc1 (stereo not shown) [CBK282940] | 87.8
76 | CN1CCC(CN(C)CC2CCCN(Cc3ccccc3)C2)C1 (stereo not shown) [CBK282946] | 90.7
77 | CCCn1ncc(CN[C@@H]2CCC[C@H]2Cc2cc(C)no2)c1C [CBK282948] | 88.7
78 | Fc1ccccc1CN(CCCn1ccnc1)Cc1ccco1 [CBK282952] | 109
79 | Cc1c(CN(Cc2cccc(F)c2)CC2CCCO2)cnn1C (stereo not shown) [CBK282953] | 89.9
80 | OC12CCCCC1CN(CC1=Cc3ccccc3OC1)CC2 (stereo not shown) [CBK282954] | 86.3
81 | CCn1cc(CN2CCC(O)(c3ccc(C)cc3)CC2)c(C)n1 [CBK282955] | 89.2
82 | CCn1ncc(CN2CCC(O)(c3ccc(C)cc3)CC2)c1C [CBK282956] | 90.2
83 | Cc1cc(C)n(CC(O)CN(Cc2ccccc2)Cc2ccco2)n1 (stereo not shown) [CBK282957] | 95.7
84 | COCCCN(Cc1ccccn1)Cc1c(F)cccc1F [CBK282959] | 93.5
85 | Cn1cncc1CN(CCCn1ccnc1)Cc1ccccc1F [CBK282960] | 85
86 | COCCCN(Cc1ccc(F)c(F)c1)Cc1ccccn1 [CBK282961] | 90.7
87 | Cc1cc(C2CCCCCN2Cc2c(C)nn(C)c2C)on1 (stereo not shown) [CBK282967] | 99.7
88 | CCC(=O)N1CCC(c2nc(Cc3cccs3)no2)C1 (stereo not shown) [CBK282968] | 88.5
89 | Cc1cc(C[C@@H]2COC[C@H]2NCc2ccccc2Cl)on1 [CBK282969] | 94.8
90 | O=C(CCn1cncn1)N[C@H]1C2CCCCC2[C@@H]1c1ccccc1 (stereo partly shown) [CBK282970] | 100
91 | CCCn1cc(CN2C3CCC2CC(O)(c2ccc(F)cc2)C3)cn1 (stereo not shown) [CBK282971] | 91.5
92 | CCn1ncc(CN2C3CCC2CC(O)(c2ccc(F)cc2)C3)c1C (stereo not shown) [CBK282973] | 100
93 | COCCCN(Cc1ccccn1)Cc1ccc(F)cc1F [CBK282974] | 103
94 | COCCCN(Cc1cc(F)cc(F)c1)Cc1ccccn1 [CBK282975] | 100
